The text below walks through data of patent publication US20250257034A1, “INDOLE DERIVATIVES AS SEROTONERGIC AGENTS USEFUL FOR THE TREATMENT OF DISORDERS RELATED THERETO” (priority 2023, published 2025).

The target in this experiment is 5-HT2B receptor (Homo sapiens, UniProt P41595). Put plainly: h-5HT2B positive allosteric modulator (PAM) assay in HEK293 cells. The experiment is classed as cell-based. Set-up: expressed in transfected cells; host or cells: HEK293, stably transfected. The settings on record: for Emax (% of serotonin): PAM mode. On the procedure:
Compound potency (EC50) and efficacy (Max response) against the human 5-HT2B receptor in stably transfected HEK293 cells was determined in a GPC R cell-based assay.
For Positive Allosteric Modulator determination, cells were pre-incubated with sample followed by EC20 addition. Intermediate dilution of sample stocks was performed to generate 5×sample in assay buffer. 5 μL of 5×sample was added to cells and incubated at 37° C. for 10 minutes. 5 μL of agonist at 6×EC20 concentration was added and cells were incubated at 37° C. for 120 minutes. Final assay vehicle concentration was 1%. The results are expressed as a percent efficacy relative to the maximum response of the control ligand (serotonin) in Table 29.
For Positive Allosteric Modulator determination, cells were pre-incubated with sample followed by EC20 addition. Intermediate dilution of sample stocks was performed to generate 5×sample in assay buffer. 5 μL of 5×sample was added to cells and incubated at 37° C. for 10 minutes. 5 μL of agonist at 6×EC20 concentration was added and cells were incubated at 37° C. for 120 minutes. Final assay vehicle concentration was 1%. The results are expressed as a percent efficacy relative to the maximum response of the control ligand (serotonin) in Table 58.

Where [1] appears, read: relative to maximum response of serotonin (Table 29).

Structures are written as SMILES. A value given as a limit tells only on which side of the number the result lay.

Sequence of 5-HT2B receptor (P41595 whole entry): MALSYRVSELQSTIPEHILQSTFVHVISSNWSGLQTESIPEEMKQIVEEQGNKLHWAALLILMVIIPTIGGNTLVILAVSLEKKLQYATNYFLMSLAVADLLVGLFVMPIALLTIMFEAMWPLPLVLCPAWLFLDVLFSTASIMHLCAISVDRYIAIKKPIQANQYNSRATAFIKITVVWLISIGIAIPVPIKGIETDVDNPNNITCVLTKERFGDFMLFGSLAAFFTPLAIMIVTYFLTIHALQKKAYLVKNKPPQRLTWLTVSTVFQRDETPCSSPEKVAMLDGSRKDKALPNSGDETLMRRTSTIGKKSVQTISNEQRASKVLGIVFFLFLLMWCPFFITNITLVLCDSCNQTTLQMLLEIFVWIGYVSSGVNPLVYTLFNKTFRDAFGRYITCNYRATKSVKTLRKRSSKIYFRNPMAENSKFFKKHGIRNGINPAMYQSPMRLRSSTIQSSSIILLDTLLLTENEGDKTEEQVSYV

Usually EC50 stands for the concentration at which the effect is half-maximal. Lower therefore signals a more potent agent. As to `COc1ccc2[nH]cc(CCN3CC[C@H](OC(F)F)C3)c2c1` [(S) I-67, (S)-3-(2-(3-(Difluoromethoxy)pyrrolidin-1-yl)ethyl)-5-methoxy-1H-indole], the 50% effective concentration (EC50) was above 10 µM. Also, the “Emax (% of serotonin)” value (HEK293 cells, relative to max response of serotonin) is 0 % of serotonin.

`[2H]C([2H])([2H])N(CCc1c[nH]c2ccc(SC)cc12)C([2H])([2H])[2H]` [Compound I-1, N,N-Bis(methyl-d3)-2-(5-(methylthio)-1H-indol-3-yl)ethan-1-amine] had an EC50 above 10 µM. Also, the “Emax (% of serotonin)” value under setting [1] was 0 % of serotonin.

For the compound `CCN(C)CCc1c[nH]c2ccc(SC)cc12` [Compound I-13, N-Ethyl-N-methyl-2-(5-(methylthio)-1H-indol-3-yl)ethan-1-amine], the EC50 was above 10 µM. Moreover, the “Emax (% of serotonin)” value under setting [1] is listed as 0 % of serotonin.
